{
  "source": "patent US11000529B2",
  "about": "“Human papilloma virus replication inhibitors” (Icosagen Cell Factory OÜ, priority 2015, dated 2021)",
  "key": {"[1]": {"system": "HPV18", "experiment": "HPV18 initial amplification replication assay in U2OS cells (Southern Blot)", "format": "cell-based", "excerpt": "FIG. 2 Effect of the identified five compounds on HPV18 initial amplification. A: U2OS cells were transfected with HPV18 wt minicircle and grown in the presence of the compounds with indicated concentrations for 5 days. Genomic DNA was extracted, linearized, and digested with DpnI. HPV genome replication signals were detected using Southern Blot analyses and quantified with phosphoimager and expressed relative to vehicle control (DMSO). Approximate IC50 values are shown for each compound. Error-bars represent standard deviation from at least three independent experiment. B: U2OS cells were transfected with the expression vectors of HPV18 E1 and E2 proteins together with HPV18 URR (origin) minicircle plasmid. The cells were grown in the presence of the compounds with indicated concentrations for 24 or 48 hours. Genomic DNA was extracted, linearized and digested with DpnI. HPV URR replication signals were detected by Southern Blot analyses. DMSO serves as vehicle control and M 18URR serves as size marker.\n(§1) Replication assay. The U2OS or U2OS-EBNA1 cells were transfected with 2 ug of HPV18 minicircle genome and lug of oriP plasmid (only in case of U2OS-EBNA1 cells). All the compounds were added to the media immediately after the transfection and media was changed on the third day. Replication signals were detected with Southern Blot method. Briefly, genomic DNA was extracted 3 and 4 days after the transfection with sh_RNAs or with the use of ABT-888 and 5 days after for analyses of the effects of HPV inhibitors w/wo CPT. DNA was digested with BglI and DpnI for analyses of HPV18 replication and with BstXI, ScaI and DpnI for analyses of HPV18 and oriP replication simultaneously. 3 ug of DNA was resolved in agarose gel, transferred to a nylon membrane (Membrane Solutions LLC) and hybridized with specific radioactively labeled probes. Signals were detected and quantified with Typhoon Trio+ phosphoimager (GE Healthcare) and exposed on an X-ray film (AGFA).\nfor compounds inhibiting initial amplification of HPV18 genome in U2OS cells. HT-screening was conducted with all the compounds in this library in 5 uM and 1 uM concentrations and it gave us 80 hits (approximately 5% of analyzed compounds). After validation of the hits on HPV18 wt genome, we found five compounds inhibiting initial amplification of HPV18 in U2OS cells (FIG. 1). To further characterize the compounds, we performed replication assay described in Example 1."}, "[2]": {"system": "HPV18", "experiment": "HPV18 replication in U2OS-EBNA1 cells, compounds alone or with CPT", "format": "cell-based", "conditions": "U2OS-EBNA1, with 2 nM CPT, 5 days", "description": "FIG. 5 Synergistic effect between Camptothecin (CPT) and the identified five compounds. U2OS-EBNA1 cells were transfected with HPV18 wt and oriP plasmids and grown in the presence of indicated concentrations of the compounds alone or together with 2 nM CPT for 5 days. Genomic DNA was extracted, linearized and digested with DpnI. Both HPV18 and oriP replication signals were detected with Southern Blot and quantified by phosphoimager. […] Error-bars represent standard deviations from at least three independent experiments.\nas §1\nSynergistic effect of Campthotecin (CPT) and HPV18 replication inhibitors. CPT is a Topoisomerase I inhibitor that stabilizes entrapped Top1cc complexes to DNA. Since Tdp1 is responsible for cleaving entrapped Top1cc complexes from DNA, synergistic effect between CPT and Tdp1 inhibitors occurs. In the experiments shown in FIG. 5 we used U2OS cells constitutively expressing Epstein Barr virus (EBV) EBNA1 protein—U2OS-EBNA1. These cells allow to monitor HPV and EBNA1 supported oriP plasmid replication simultaneously. […] U2OS-EBNA1 cells were cotransfected with HPV18 genome and oriP plasmid and the cells were grown in the presence of various concentrations of the identified HPV inhibitors alone or together with 2 nM of CPT for 5 days, DMSO was used as vehicle control."}, "[3]": {"system": "HPV18", "experiment": "Stable maintenance of HPV18 in U2OS #1.13 cells, subconfluent", "format": "cell-based", "conditions": "U2OS #1.13, subconfluent, 7 days", "description": "(§2) FIG. 3 Effect of compounds on stable maintenance and vegetative amplification of HPV18. A: U2OS #1.13 cells were grown in subconfluent conditions in the presence of the identified five compounds for 7 days. Genomic DNA was extracted, linearized and HPV replication signal was detected by Southern Blot and B: quantified by phosphoimager. C: U2OS #1.13 were seeded and grown for 5 days without splitting. On the 5th day indicated concentrations of compounds were added to the media and the cells were grown for additional 7 days without splitting. On the 12th day genomic DNA was extracted, linearized and HPV replication signal was detected by Southern Blot and D: quantified by phosphoimager. Error-bars represent standard deviations from at least two independent experiments.\nOur U2OScell-based system is suitable for studying all three replication stages of various HPV subtypes. Stable maintenance phase could be monitored by maintaining HPV-positive cells in subconfluent conditions. We used HPV18 positive monoclonal U2OS cell-line #1.13 with viral copy number ˜2000. We grew the #1.13 cells in the presence of various concentration of compounds in subconfluent conditions (cells were split every three days) for 7 days. HPV18 replication signal was detected by Southern blot analyses and quantified with phosphoimager. About 50% of the signal was lost in case of compound 82269 compared to the DMSO control (FIG. 3, panel A, compare lanes 4-6 with lane 15 and panel B)."}, "[4]": {"system": "HPV18E1E2 mutant genome", "experiment": "HPV18E1E2 mutant genome replicated by HPV11 E1 and E2 in U2OS cells", "format": "cell-based, HPV18", "conditions": "U2OS co-transfected with HPV18E1E2 mutant and HPV11 wt minicircle, 5 days", "excerpt": "Besides oncoproteins E6 and E7, HPVs differ from replication proteins E1 and E2 as well. To determine if the compounds identified here inhibit the replication of HR but not LR or cutaneous HPVs through E1 or E2, HPV18E1E2 mutant genome (deficient in replication due to mutations in the ORFs of E1 and E2) was replicated by E1 and E2 proteins originating from HPV11. HPV18E1E2 mutant genome alone was used as control. U2OS cells were co-transfected with HPV18E1E2 mutant and HPV11 wt mini circle genome and the cells were grown in the presence of compound 305831 for 5 days, media was changed on the 3rd day. DMSO was added as vehicle control. Genomic DNA was extracted, HPV DNA was digested with AgeI, SdaI and DpnI. HPV replication was detected by Southern Blot analyses. Results on FIG. 7 show, that HPV18E1E2 mutant genome is indeed replication-deficient when transfected alone (lane 7). […] The activity of LR-HPV E1 and E2 proteins or their interactome seem to be different compared to HR-HPV replication proteins."}, "[5]": {"target": "Tdp (Homo sapiens, UniProt Q9NUW8)", "sequence (Q9NUW8 whole entry)": "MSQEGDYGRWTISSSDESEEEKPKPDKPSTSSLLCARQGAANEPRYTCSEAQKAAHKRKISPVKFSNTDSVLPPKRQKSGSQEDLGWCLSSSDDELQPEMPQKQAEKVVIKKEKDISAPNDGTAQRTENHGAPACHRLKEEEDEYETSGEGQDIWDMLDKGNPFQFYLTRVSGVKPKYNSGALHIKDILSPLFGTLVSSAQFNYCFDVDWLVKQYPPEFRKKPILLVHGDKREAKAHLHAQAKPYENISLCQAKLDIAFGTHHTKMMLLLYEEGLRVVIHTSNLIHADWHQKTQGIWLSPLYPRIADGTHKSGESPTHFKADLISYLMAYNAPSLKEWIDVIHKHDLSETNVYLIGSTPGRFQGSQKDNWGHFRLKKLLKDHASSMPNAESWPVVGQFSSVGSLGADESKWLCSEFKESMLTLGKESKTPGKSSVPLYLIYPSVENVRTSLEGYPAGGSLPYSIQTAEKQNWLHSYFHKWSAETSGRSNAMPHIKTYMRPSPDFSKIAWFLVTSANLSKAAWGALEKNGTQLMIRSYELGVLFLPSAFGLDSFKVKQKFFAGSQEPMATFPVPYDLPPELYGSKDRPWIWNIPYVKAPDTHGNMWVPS", "conditions": "known from the literature; cited from earlier work"}, "[6]": {"system": "HPV18", "experiment": "Vegetative amplification of HPV18 in U2OS #1.13 cells, confluent", "format": "cell-based", "conditions": "U2OS #1.13, confluent, compounds added on 5th day for additional 7 days", "description": "as §2\nIf #1.13 is grown in confluent conditions for at least 5 days, vegetative amplification of HPV genome is turned on. We seeded equal amounts of cells onto plates and grew them for 5 days without splitting. On the 5th day various concentrations of compound were added and the cells were grown for additional 7 days (media was changed every two days throughout the experiment). HPV replication signal was detected by Southern Blot analyses and quantified with phosphoimager."}},
  "note": "pIC50: −log10 of the molar value. “Also recorded” adds a separate entry of the source.",
  "data": [
    {"molecule": "[H]/N=C(\\N)c1ccc(-c2ccc(-c3ccc(C(=N)N)cc3)o2)cc1", "note": "[NSC 305831]", "values": [
      {"measurement": "pIC50", "setting": "[1]; 120 h, read-out: IC50 of HPV18 initial amplification", "result": "4.22 to 5.60"},
      {"measurement": "inhibition of HPV18 initial amplification", "setting": "[1]; HPV18 wt minicircle, 5 days, Southern Blot, relative to DMSO", "result": "concentration-dependent inhibition"},
      {"measurement": "synergistic effect together with CPT on HPV18 replication", "setting": "[2]", "result": "clear concentration dependent synergistic effect; also recorded: clear synergistic inhibition"},
      {"measurement": "effect on stable maintenance of HPV18", "setting": "[3]", "result": "clearly inhibit"},
      {"measurement": "HPV18 replication signal lost", "setting": "[3]; compared to DMSO control", "result": "about 70%"},
      {"measurement": "HPV18 replication carried out by E1 and E2 proteins originating from HPV11", "setting": "[4]", "result": "no inhibition of HPV18 replication"},
      {"measurement": "Tdp inhibition", "setting": "[5]", "result": "known to inhibit Tdp"},
      {"measurement": "effect on vegetative amplification of HPV18", "setting": "[6]", "result": "almost completely abolished amplification; also recorded: clearly inhibit"}
    ]}
  ]
}
